The results in this text go back to patent publication US20240368664A1, “LIVE YEAST BIOSENSORS AND METHODS OF USE THEREOF” (priority 2021, published 2024).

The subject of test [1] is mutant SsSte2. It is filed as cell-based, Scheffersomyces stipites.
The subject of test [2] is SsSte2 mutants. It is filed as cell-based, Scheffersomyces stipites.

No end group written: not given here.

In turn, KHWPQIAQFAPS [nucleocapsid epitope] showed a concentration for a half-maximal effect (EC50) in test [1] of around 10 µM. The “biosensor signal compared to signal in the presence of water” value in test [2] was “over twice as strong”.

As usually defined, the EC50 is the concentration that produces a half-maximal response. Low values mean an effect from little substance, high ones a need for much substance.
